Reference: ChEMBL document CHEMBL1156193, “Discovery of a long-acting, peripherally selective inhibitor of catechol-O-methyltransferase” (2010)

Key:
[1] = Cytotoxicity against mouse Neuro2a cells assessed as cell viability at 30 uM after 24 hrs; type: functional; details: N2a, read-out: Activity
Mus musculus [2] = assay: Inhibition of COMT in NMRI mouse liver homogenates assessed as metanephrine formation at 3 mg/kg, po measured after 3 hrs relative to control; values are per cent of control
[3] = target: T1, Catechol O-methyltransferase (Rattus norvegicus) (UniProt P22734); assay: Inhibition of COMT in rat liver homogenates assessed as metanephrine formation at 30 uM relative to control; values are per cent of control
T1 sequence (whole entry): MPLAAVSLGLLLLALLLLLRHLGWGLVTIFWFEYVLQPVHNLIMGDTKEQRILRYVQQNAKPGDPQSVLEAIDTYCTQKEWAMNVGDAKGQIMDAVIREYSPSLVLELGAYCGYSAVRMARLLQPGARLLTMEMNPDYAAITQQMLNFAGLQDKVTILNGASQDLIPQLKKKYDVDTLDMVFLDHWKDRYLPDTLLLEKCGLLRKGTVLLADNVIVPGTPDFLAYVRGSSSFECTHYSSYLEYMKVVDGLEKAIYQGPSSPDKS

Rattus norvegicus [4] = assay: Inhibition of COMT in Wistar rat liver homogenates assessed as metanephrine formation at 3 mg/kg, po measured after 3 hrs relative to control; values are per cent of control
[5] = target: T1, Catechol O-methyltransferase (Rattus norvegicus); assay: Inhibition of COMT in rat liver homogenates assessed as metanephrine formation at 3 uM relative to control; values are per cent of control
Mus musculus [6] = assay: Inhibition of COMT in NMRI mouse liver homogenates assessed as metanephrine formation at 30 mg/kg, po measured after 6 hrs relative to control; values are per cent of control
Rattus norvegicus [7] = assay: Inhibition of COMT in Wistar rat brain homogenates assessed as metanephrine formation at 3 mg/kg, po measured after 3 hrs relative to control; values are per cent of control

O=[N+]([O-])c1cc(-c2nc(-c3cccnc3)no2)cc(O)c1O
viability at 30 µM [1]: 26.7%

CC(=O)N1CCN(c2noc(-c3cc(O)c(O)c([N+](=O)[O-])c3)n2)CC1
viability at 30 µM [1]: 104% | level, % of control at 3 mg/kg (Mus musculus [2]): 68.2%

Oc1cc(-c2ccnn2-c2ccccc2)cc(O)c1O
residual activity [3]: 0.8%

Cc1ccc(-c2noc(-c3cc(O)c(O)c([N+](=O)[O-])c3)n2)c(Cl)n1
viability at 30 µM [1]: 53.1%

O=C(O)c1cc(-c2ccnn2-c2cccc(Cl)c2)cc(O)c1O
residual activity [3]: 24.1%

Oc1ccc(-c2ccnn2-c2ccccc2)c(O)c1O
residual activity [3]: 26.8%

NC(=O)c1ccc(-c2noc(-c3cc(O)c(O)c([N+](=O)[O-])c3)n2)cc1
viability at 30 µM [1]: 91.2% | level, % of control at 3 mg/kg (Mus musculus [2]): 79.2%

O=[N+]([O-])c1cc(-c2nc(-c3ccc(Br)cc3)no2)cc(O)c1O
viability at 30 µM [1]: 12.2% | level, % of control at 3 mg/kg (Mus musculus [2]): 12.7%

Cc1nc(-c2noc(-c3cc(O)c(O)c([N+](=O)[O-])c3)n2)cs1
viability at 30 µM [1]: 58.7% | level, % of control at 3 mg/kg (Mus musculus [2]): 22.9%

O=[N+]([O-])c1cc(-c2nc(-c3ccc[n+]([O-])c3Cl)no2)cc(O)c1O
viability at 30 µM [1]: 93.7% | level, % of control at 3 mg/kg (Rattus norvegicus [4]): 71.6%

Oc1ccc(-c2ccnn2-c2ccc(C(F)(F)F)cc2)c(F)c1O
residual activity [3]: 32.3%

O=[N+]([O-])c1cc(-c2nc(-c3c[n+]([O-])ccc3C(F)(F)F)no2)cc(O)c1O
viability at 30 µM [1]: 93.4% | level, % of control at 3 mg/kg (Rattus norvegicus [4]): 23.6%

O=[N+]([O-])c1cc(-c2nc(-c3ccnc(F)c3)no2)cc(O)c1O
viability at 30 µM [1]: 25%

Cc1c(-c2noc(-c3cc(O)c(O)c([N+](=O)[O-])c3)n2)c(C(F)(F)F)cc(-c2ccccc2)[n+]1[O-]
viability at 30 µM [1]: 26.6% | level, % of control at 3 mg/kg (Rattus norvegicus [4]): 24.3%

O=[N+]([O-])c1cc(-c2nc(-c3ccc[n+]([O-])c3C(F)(F)F)no2)cc(O)c1O
viability at 30 µM [1]: 96.4% | level, % of control at 3 mg/kg (Rattus norvegicus [4]): 5.5%

CN1CCN(C(=O)c2ccc(-c3noc(-c4cc(O)c(O)c([N+](=O)[O-])c4)n3)cc2)CC1
viability at 30 µM [1]: 90.7% | level, % of control at 3 mg/kg (Mus musculus [2]): 74%

N#Cc1ccc(-n2nccc2-c2cc(O)c(O)c([N+](=O)[O-])c2)cc1
residual activity [5]: 0.3% | level, % of control at 30 mg/kg (Mus musculus [6]): 61.1%

O=[N+]([O-])c1cc(-c2nc(-c3ccc(C(F)(F)F)[n+]([O-])c3)no2)cc(O)c1O
viability at 30 µM [1]: 87% | level, % of control at 3 mg/kg (Rattus norvegicus [4]): 34.4%

Cc1cc(-c2noc(-c3cc(O)c(O)c([N+](=O)[O-])c3)n2)on1
viability at 30 µM [1]: 27.6%

Cc1ccc(-c2noc(-c3cc(O)c(O)c([N+](=O)[O-])c3)n2)c(N2CCOCC2)n1
viability at 30 µM [1]: 43.8%

O=[N+]([O-])c1cc(-c2nc(-c3cnccc3C(F)(F)F)no2)cc(O)c1O
viability at 30 µM [1]: 14.7%

O=[N+]([O-])c1cc(-c2ccnc(-c3ccccc3)n2)cc(O)c1O
level, % of control at 30 mg/kg (Mus musculus [6]): 44.8%

Cc1ccc(-c2noc(-c3cc(O)c(O)c([N+](=O)[O-])c3)n2)c(Cl)[n+]1[O-]
viability at 30 µM [1]: 100% | level, % of control at 3 mg/kg (Rattus norvegicus [4]): 31.6%

O=[N+]([O-])c1cc(-c2nc(-c3ccc(F)cc3)no2)cc(O)c1O
viability at 30 µM [1]: 29.5% | level, % of control at 3 mg/kg (Mus musculus [2]): 12.7%

O=[N+]([O-])c1cc(-c2nc(-c3ccccc3)no2)cc(O)c1O
viability at 30 µM [1]: 43.1% | level, % of control at 3 mg/kg (Rattus norvegicus [7]): 71.7% | level, % of control at 3 mg/kg (Rattus norvegicus [4]): 20.6% | level, % of control at 3 mg/kg (Mus musculus [2]): 20.6% | level, % of control at 30 mg/kg (Mus musculus [6]): 7%

O=[N+]([O-])c1cc(-c2ccnn2-c2cccc(Cl)c2)cc(O)c1O
residual activity [5]: 0%

Cc1nc(-c2cc(O)c(O)c([N+](=O)[O-])c2)c(-c2ccccc2)o1
level, % of control at 30 mg/kg (Mus musculus [6]): 84.1%

O=[N+]([O-])c1cc(-c2nc(N3CCOCC3)no2)cc(O)c1O
viability at 30 µM [1]: 67.5% | level, % of control at 3 mg/kg (Mus musculus [2]): 45.8%

CN1CCN(c2noc(-c3cc(O)c(O)c([N+](=O)[O-])c3)n2)CC1
viability at 30 µM [1]: 90.2% | level, % of control at 3 mg/kg (Mus musculus [2]): 56.8%

O=[N+]([O-])c1cc(-c2ccn[nH]2)cc(O)c1O
residual activity [5]: 0%

Cc1ccc(-c2noc(-c3cc(O)c(O)c([N+](=O)[O-])c3)n2)c(Br)[n+]1[O-]
viability at 30 µM [1]: 76.3% | level, % of control at 3 mg/kg (Rattus norvegicus [4]): 33.7%

Cc1ccc(C(=O)n2ncc(-c3ccccc3)c2-c2cc(O)c(O)c([N+](=O)[O-])c2)cc1
residual activity [5]: 2.8% | level, % of control at 30 mg/kg (Mus musculus [6]): 89.3%

O=[N+]([O-])c1cc(-c2nc(-c3ccc(Cl)c(Cl)c3)no2)cc(O)c1O
viability at 30 µM [1]: 37.7% | level, % of control at 3 mg/kg (Mus musculus [2]): 8.8%

Cc1[nH]nc(-c2ccc(O)c(O)c2O)c1-c1ccc(Cl)cc1
residual activity [5]: 15.6%

Cc1cc(C(F)(F)F)c(-c2noc(-c3cc(O)c(O)c([N+](=O)[O-])c3)n2)c(C)[n+]1[O-]
viability at 30 µM [1]: 37.2% | level, % of control at 3 mg/kg (Rattus norvegicus [4]): 1.3%

O=[N+]([O-])c1cc(-c2nc(-c3ccccn3)no2)cc(O)c1O
viability at 30 µM [1]: 70.5%

Cn1nccc1-c1cc(O)c(O)c([N+](=O)[O-])c1
residual activity [5]: 1.1%

O=[N+]([O-])c1cc(-c2c(-c3ccccc3)cnn2-c2cccc(Cl)c2)cc(O)c1O
residual activity [5]: 68.6%

O=[N+]([O-])c1cc(-c2cncn2-c2ccccc2)cc(O)c1O
level, % of control at 30 mg/kg (Mus musculus [6]): 109%

Cc1c(-c2noc(-c3cc(O)c(O)c([N+](=O)[O-])c3)n2)ccc(C(F)(F)F)[n+]1[O-]
viability at 30 µM [1]: 62.2% | level, % of control at 3 mg/kg (Rattus norvegicus [4]): 13.9%

O=[N+]([O-])c1cc(-c2nc(-c3cccs3)no2)cc(O)c1O
viability at 30 µM [1]: 19.3% | level, % of control at 3 mg/kg (Mus musculus [2]): 29.6%

O=[N+]([O-])c1cc(-c2nc(-c3ccc[n+]([O-])c3)no2)cc(O)c1O
viability at 30 µM [1]: 93.8% | level, % of control at 3 mg/kg (Rattus norvegicus [4]): 77%

Cc1c(C)c(C)[n+]([O-])c(Cl)c1-c1noc(-c2cc(O)c(O)c([N+](=O)[O-])c2)n1
viability at 30 µM [1]: 95.1% | level, % of control at 3 mg/kg (Rattus norvegicus [4]): 7.9%

Cc1ccc(-n2nccc2-c2ccc(O)c(O)c2)cc1
residual activity [3]: 41.2%

O=[N+]([O-])c1cc(-c2ccnn2-c2ccccc2)cc(O)c1O
residual activity [5]: 0% | level, % of control at 30 mg/kg (Mus musculus [6]): 60.8%

O=[N+]([O-])c1cc(-c2nc(-c3ccncc3)no2)cc(O)c1O
viability at 30 µM [1]: 27.3%

Cc1ccc(-n2nccc2-c2cc(O)c(O)c([N+](=O)[O-])c2)cc1
residual activity [5]: 0%

O=[N+]([O-])c1cc(-c2noc(-c3ccccc3)n2)cc(O)c1O
level, % of control at 3 mg/kg (Rattus norvegicus [7]): 55.6% | level, % of control at 3 mg/kg (Rattus norvegicus [4]): 51.9% | level, % of control at 30 mg/kg (Mus musculus [6]): 24.4%

O=C(Cc1ccccc1)c1cc(O)c(O)c([N+](=O)[O-])c1 [NEBICAPONE]
level, % of control at 30 mg/kg (Mus musculus [6]): 85.7%

Cc1cc(C)[n+]([O-])c(Cl)c1-c1noc(-c2cc(O)c(O)c([N+](=O)[O-])c2)n1
viability at 30 µM [1]: 92.3% | level, % of control at 3 mg/kg (Rattus norvegicus [4]): 13.9%

O=[N+]([O-])c1cc(-c2nc(-c3cnccn3)no2)cc(O)c1O
viability at 30 µM [1]: 60.5%

O=[N+]([O-])c1cc(-c2nc(N3CCN(c4ccccn4)CC3)no2)cc(O)c1O
viability at 30 µM [1]: 24.6% | level, % of control at 3 mg/kg (Mus musculus [2]): 32.2%

O=[N+]([O-])c1cc(-c2nnc(-c3ccccc3)o2)cc(O)c1O
level, % of control at 3 mg/kg (Rattus norvegicus [7]): 87.9% | level, % of control at 3 mg/kg (Rattus norvegicus [4]): 67.8% | level, % of control at 30 mg/kg (Mus musculus [6]): 47.3%

Nc1nc(-c2cc(O)c(O)c([N+](=O)[O-])c2)c(-c2ccccc2)s1
level, % of control at 30 mg/kg (Mus musculus [6]): 77.4%
